According to patent US8470765B2, “Polypeptides and antibacterial or antiseptic use of same” (AnGes MG, Inc., priority 2009, dated 2013):
≈ marks a conversion by molar mass, not a printed value. Read-outs that look alike come from different tables or passages of the source. No end group written: not given here.

Columns and labels:
[1] = tested on: Pseudomonas aeruginosa 1 (clinical strain); test: microbe, parasite or virus in culture
Protocol: (§1) Bacteria (Escherichia coli ATCC 25922, Pseudomonas aeruginosa ATCC 27853, Staphylococcus aureus ATCC29213, Klebsiella pneumoniae JCM 1662, Enterobacter cloacae JCM 1232, Enterobacter aerogenes JCM 1235 and Staphylococcus epidermidis JCM 2414) were inoculated to Mueller-Hinton broth: MHB or LB medium, and cultured at a temperature and period suited for each strain. From the thus obtained colonies, each strain was inoculated to a fresh liquid medium and cultured for 16 to 20 hours. Then an aliquot having a volume (10 to 50 appropriate to each strain was inoculated to a fresh liquid medium and cultured for 4 to 6 hours, followed by the measurement of the absorbance at 600 nm. After comparing the turbidity with McFarland #0.5, the resultant was diluted with a medium. Each strain was added to about 10^5 CFU/mL (final concentration).
(§2) Further, the antibacterial activities against the clinical strains collected and isolated from infected patients were also examined. The tests were carried out for two methicillin-resistant Staphylococcus (MRSA) (MRSA (i) and (ii)), two methicillin-sensitive Staphylococcus (MSSA) (MSSA (i) and (ii)), five Pseudomonas aeruginosa, Pseudomonas aeruginosa 1, Pseudomonas aeruginosa 6, Pseudomonas aeruginosa 8. Pseudomonas aeruginosa 9 and Pseudomonas aeruginosa 12, totally 9 clinical strains. The MRSA and MSSA clinical strains were tested by the same method as Staphylococcus aureus ATCC29213, and Pseudomonas clinical strains were tested by the same method as Pseudomonas aeruginosa ATCC 27853.
(§3) Each of the peptide solutions to be tested was diluted with MHB to obtain a solution of 128 μg/mL. This solution was serially diluted with the medium to prepare peptide-containing media having concentrations of 128, 64, 32, 16, 8.0, 4.0 and 2.0 μg/mL respectively. […] By dilution with sterilized purified water to 1.0 mg/mL, positive control-containing media having concentrations of 16, 8, 4, 2, 1.0, 0.25, 0.12 and 0.06 μg/mL, respectively for TOB; 0.5, 0.12 and 0.06 μg/mL, respectively, for OX; and 16, 8, 4, 2, 1.0, 0.25, 0.12, 0.06, 0.06, 0.03 and 0.008 μg/mL, respectively, for MEPM, were prepared.
(§4) To a 96-well microtiter plate, 0.1 mL of the inoculation solution and 0.1 mL of the peptide- or positive control-containing medium having the respective concentration were added, and cultured at 37° C. for 16 to 24 hours (or a time period suited for the growth of the respective strain). The well not containing the sample was used as a negative control. After the culturing, the growth was visually observed, and the minimum concentration at which the growth was inhibited was defined as the minimum growth inhibition concentration (MIC).
(§5) The medium used in this test for bacteria was Mueller-Hinton broth. Independent experiments were carried out twice or more for each strain.

[2] = tested on: Pseudomonas aeruginosa 12 (clinical strain); test: microbe, parasite or virus in culture
Protocol: as §1, §2, §3, §4, §5

[3] = tested on: Pseudomonas aeruginosa 6 (clinical strain); test: microbe, parasite or virus in culture
Protocol: as §1, §2, §3, §4, §5

[4] = tested on: Pseudomonas aeruginosa 9 (clinical strain); test: microbe, parasite or virus in culture
Protocol: as §1, §2, §3, §4, §5

[5] = tested on: Pseudomonas aeruginosa 8 (clinical strain)
Protocol: as §1, §2, §3, §4, §5

[6] = tested on: methicillin-resistant Staphylococcus (MRSA) MRSA(i); test: organism not typed
Protocol: as §1, §2, §3, §4, §5

[7] = tested on: methicillin-resistant Staphylococcus (MRSA) MRSA(ii); test: organism not typed
Protocol: as §1, §2, §3, §4, §5

[8] = tested on: methicillin-sensitive Staphylococcus (MSSA) MSSA(i); test: organism not typed; details: Table 4; clinical strain; first/second value where not identical
Protocol: as §1, §2, §3, §4, §5

[9] = tested on: methicillin-sensitive Staphylococcus (MSSA) MSSA(ii); test: organism not typed
Protocol: as §1, §2, §3, §4, §5

[10] = tested on: Bacillus subtilis NBRC3134
[11] = tested on: Salmonella typhimurium JCM1652
[12] = tested on: Acinetobacter baumanni JCM6841
[13] = tested on: Bacteroides fragilis JCM 11019; details: JCM 11019
[14] = tested on: Fusobacterium nucleatum JCM 11025
[15] = tested on: Fusarium solani JCM11383
[16] = tested on: Trichophyton rubrum NBRC9185
[17] = tested on: Candida krusei NBRC1395
[18] = tested on: Aspergillus niger NBRC 9455
[19] = Table 4, clinical strain, first/second value where not identical
[20] = Table 4, two tests, first/second value where not identical
[21] = methicillin-resistant Staphylococcus (i)
[22] = methicillin-resistant Staphylococcus (ii)
[23] = methicillin-sensitive Staphylococcus (ii)

GRLKRMGKRLKRKIQKWARW-NH2 [SRP-14]
MIC Pseudomonas aeruginosa 1 ([1]; 1 (clinical strain)): 16 µg/mL
MIC Pseudomonas aeruginosa 12 [2, 19]: 8/16
MIC Pseudomonas aeruginosa 6 [3, 19]: 8/16
MIC Pseudomonas aeruginosa 9 [4, 19]: 16/32
MIC Pseudomonas aeruginosa 8 ([5]; 8 (clinical strain)): 16 µg/mL
MIC MRSA(i) [6, 19]: 16/32
MIC MRSA(ii) [7, 19]: 16/32
MIC MSSA(i) [8]: 16/32
MIC MSSA(ii) [9, 19]: 16/32
MIC Bacillus subtilis ([10]; NBRC3134): 4 µg/mL
MIC Salmonella Typhimurium [11, 20]: 4/8
MIC Acinetobacter baumanni ([12]; JCM6841): 64 µg/mL
MIC Bacteroides fragilis [13]: 128 µg/mL
MIC Fusobacterium nucleatum ([14]; JCM 11025): 4 µg/mL
MIC Fusarium solani ([15]; JCM11383): 4 µg/mL
MIC Trichophyton rubrum ([16]; NBRC9185): 32 µg/mL
MIC Candida krusei ([17]; NBRC1395): 32 µg/mL
MIC Aspergillus niger [18, 20]: 4/8

IFLHRLKRMRKRLKRKLRLW-OH [SRP-7]
MIC Pseudomonas aeruginosa 1 [1, 19]: 32/64
MIC Pseudomonas aeruginosa 12 ([2]; 12 (clinical strain)): 16 µg/mL
MIC Pseudomonas aeruginosa 6 [3, 19]: 16/64
MIC Pseudomonas aeruginosa 9 [4, 19]: 64/128
MIC Pseudomonas aeruginosa 8 ([5]; 8 (clinical strain)): 32 µg/mL
MIC Bacillus subtilis ([10]; NBRC3134): 4 µg/mL
MIC Salmonella Typhimurium ([11]; JCM1652): 4 µg/mL
MIC Acinetobacter baumanni ([12]; JCM6841): 128 µg/mL
MIC Bacteroides fragilis [13]: 128 µg/mL
MIC Fusobacterium nucleatum ([14]; JCM 11025): 4 µg/mL
MIC Fusarium solani ([15]; JCM11383): 8 µg/mL
MIC Trichophyton rubrum [16, 20]: 64/32
MIC Candida krusei [17, 20]: 64/32
MIC Aspergillus niger [18, 20]: 8/16

C[C@@H](O)[C@H]1C(=O)N2C(C(=O)O)=C(S[C@@H]3CN[C@H](C(=O)N(C)C)C3)[C@H](C)[C@H]12 [meropenem, reference compound]
MIC ([1]; Pseudomonas aeruginosa, read-out: MIC Pseudomonas aeruginosa 1): < 4000 µg/mL
MIC ([2]; Pseudomonas aeruginosa, read-out: MIC Pseudomonas aeruginosa 12): < 4000 µg/mL
MIC ([3]; Pseudomonas aeruginosa, read-out: MIC Pseudomonas aeruginosa 6): 8 to 16 µg/mL (≈ 20.9 to 41.7 µM)
MIC ([4]; Pseudomonas aeruginosa, read-out: MIC Pseudomonas aeruginosa 9): < 4000 µg/mL
MIC ([6]; read-out: MIC MRSA(i)): < 4000 µg/mL
MIC ([7]; read-out: MIC MRSA(ii)): 8 to 16 µg/mL (≈ 20.9 to 41.7 µM)
MIC ([9]; read-out: MIC MSSA(ii)): 4 to 8 µg/mL (≈ 10.4 to 20.9 µM)

RLKRMRKRLKRKLRLWHRKRYK-NH2 [SRP-8]
MIC Pseudomonas aeruginosa 1 [1, 19]: 16/32
MIC Pseudomonas aeruginosa 12 [2, 19]: 16/32
MIC Pseudomonas aeruginosa 6 ([3]; 6 (clinical strain)): 16 µg/mL
MIC Pseudomonas aeruginosa 9 [4, 19]: 16/64
MIC Pseudomonas aeruginosa 8 ([5]; 8 (clinical strain)): 16 µg/mL
MIC MRSA(i) [6, 21]: 64 µg/mL
MIC MRSA(ii) [7, 22]: 64 µg/mL
MIC MSSA(i) [8]: 32/64
MIC MSSA(ii) [9, 23]: 32 µg/mL
MIC Bacillus subtilis ([10]; NBRC3134): 8 µg/mL
MIC Salmonella Typhimurium ([11]; JCM1652): 64 µg/mL
MIC Acinetobacter baumanni ([12]; JCM6841): 128 µg/mL
MIC Bacteroides fragilis [13]: > 128 µg/mL
MIC Fusobacterium nucleatum ([14]; JCM 11025): > 128 µg/mL
MIC Fusarium solani ([15]; JCM11383): 4 µg/mL
MIC Trichophyton rubrum ([16]; NBRC9185): 128 µg/mL
MIC Candida krusei ([17]; NBRC1395): 32 µg/mL
MIC Aspergillus niger [18, 20]: 16/32

RLKRMRKRLKRKLRLW-NH2 [SRP-17]
MIC Pseudomonas aeruginosa 1 [1, 19]: 32/64
MIC Pseudomonas aeruginosa 12 [2, 19]: 16/64
MIC Pseudomonas aeruginosa 6 [3, 19]: 32/64
MIC Pseudomonas aeruginosa 9 [4, 19]: 64/128
MIC Pseudomonas aeruginosa 8 [5, 19]: 64/128
MIC Bacillus subtilis ([10]; NBRC3134): 8 µg/mL
MIC Salmonella Typhimurium ([11]; JCM1652): 16 µg/mL
MIC Acinetobacter baumanni ([12]; JCM6841): 128 µg/mL
MIC Bacteroides fragilis [13]: > 128 µg/mL
MIC Fusobacterium nucleatum ([14]; JCM 11025): > 128 µg/mL
MIC Fusarium solani ([15]; JCM11383): 8 µg/mL
MIC Trichophyton rubrum [16, 20]: 64/32
MIC Candida krusei ([17]; NBRC1395): 32 µg/mL
MIC Aspergillus niger [18, 20]: 8/16

KNLRRIIRKIIHIIKKYG-NH2 [Ovispirin-1, reference compound]
MIC Pseudomonas aeruginosa 1 [1, 19]: 16/64
MIC Pseudomonas aeruginosa 12 [2, 19]: 16/32
MIC Pseudomonas aeruginosa 6 [3, 19]: 32/64
MIC Pseudomonas aeruginosa 9 [4, 19]: 32/128
MIC Pseudomonas aeruginosa 8 [5, 19]: 32/64
MIC MRSA(i) [6, 21]: 32 µg/mL
MIC MRSA(ii) [7, 22]: 32 µg/mL
MIC MSSA(i) [8]: 16/32
MIC MSSA(ii) [9, 23]: 16 µg/mL
MIC Bacillus subtilis ([10]; NBRC3134): 2 µg/mL
MIC Salmonella Typhimurium ([11]; JCM1652): 16 µg/mL
MIC Acinetobacter baumanni [12, 20]: 4/8
MIC Bacteroides fragilis [13]: 1 µg/mL
MIC Fusobacterium nucleatum [14, 20]: 2/4
MIC Fusarium solani [15, 20]: 4/8
MIC Trichophyton rubrum ([16]; NBRC9185): 64 µg/mL
MIC Candida krusei ([17]; NBRC1395): 16 µg/mL
MIC Aspergillus niger ([18]; NBRC 9455): 32 µg/mL

KLIFLRELRRLRKRLKRKLR-NH2 [SRP-16]
MIC Pseudomonas aeruginosa 1 [1, 19]: 16/32
MIC Pseudomonas aeruginosa 12 [2, 19]: 8/16
MIC Pseudomonas aeruginosa 6 ([3]; 6 (clinical strain)): 16 µg/mL
MIC Pseudomonas aeruginosa 9 ([4]; 9 (clinical strain)): 64 µg/mL
MIC Pseudomonas aeruginosa 8 ([5]; 8 (clinical strain)): 16 µg/mL
MIC MRSA(i) [6, 21]: 32 µg/mL
MIC MRSA(ii) [7, 22]: 64 µg/mL
MIC MSSA(i) [8]: 16/32
MIC MSSA(ii) [9, 23]: 16 µg/mL
MIC Bacillus subtilis [10, 20]: 8/4
MIC Salmonella Typhimurium ([11]; JCM1652): 8 µg/mL
MIC Acinetobacter baumanni ([12]; JCM6841): 128 µg/mL
MIC Bacteroides fragilis [13]: 32 µg/mL
MIC Fusobacterium nucleatum ([14]; JCM 11025): 128 µg/mL
MIC Fusarium solani [15, 20]: 4/8
MIC Trichophyton rubrum [16, 20]: 64/32
MIC Candida krusei ([17]; NBRC1395): 32 µg/mL
MIC Aspergillus niger [18, 20]: 8/16

LIFLHRLKRMRKRLKRKLRL-NH2 [SRP-12]
MIC Pseudomonas aeruginosa 1 [1, 19]: 16/32
MIC Pseudomonas aeruginosa 12 ([2]; 12 (clinical strain)): 16 µg/mL
MIC Pseudomonas aeruginosa 6 [3, 19]: 32/64
MIC Pseudomonas aeruginosa 9 [4, 19]: 16/64
MIC Pseudomonas aeruginosa 8 [5, 19]: 32/64
MIC MRSA(i) [6, 21]: 32 µg/mL
MIC MRSA(ii) [7, 19]: 32/64
MIC MSSA(i) [8]: 16 µg/mL
MIC MSSA(ii) [9, 23]: 16 µg/mL
MIC Aspergillus niger [18, 20]: 8/16
